Read-outs that look alike come from different tables or passages of the source.
Tests used:
Format in all cases: physicochemical
[1] = DVS water sorption isotherm, 25° C. scanned over 0 to 95% relative humidity (hygroscopicity)
Excerpt: In various embodiments, the hygroscopicity of crystal forms of racemic amisulpride, enantiomeric amisulpride, and enantiomeric amisulpride solvates are characterized by dynamic vapor sorption (DVS). DVS is a gravimetric technique that measures how much of a solvent is absorbed by a sample by varying the vapor concentration surrounding the sample (e.g., relative humidity) and measuring the change in mass. In the present application, DVS is used to generate water sorption isotherms, which represent the equilibrium amount of vapor sorbed as a function of steady state relative vapor pressure at a constant temperature.

[2] = Solubility (mg/mL) in water, buffers, simulated fluids and organic solvents (Table 1)
[3] = Solid form stability on storage at 25° C. and 60% relative humidity; details: after 4 months at 25° C. and 60% relative humidity (RH)
[4] = DVS, 25° C., 0 to 95% relative humidity

## CCN1CCC[C@H]1CNC(=O)c1cc(S(=O)(=O)CC)c(N)cc1OC [(S)-amisulpride Form A′, S-4-Amino-N-[(1-ethyl-2-pyrrolidinyl)methyl]-5-(ethylsulfonyl)-2-methoxybenzamide]
[1]; [4]
  hygroscopicity: substantially non-hygroscopic (less than a 1% maximum mass change in water sorption isotherms, at 25 °C scanned over 0 to 95% relative humidity)
  maximum mass change in water sorption isotherms: 0.35%
[1]; DVS, Tables 6B and 6C only
  average maximum mass change based on the data of Tables 6B and 6C: about 0.16%
[1]; DVS, average over the samples of Tables 6A-6C (Form A′) or 6D-6E (Form A)
  average maximum mass change: about 0.22%
[1]; FIG. 3D, RH 0 %, elapse time 60.72 min, sorption
  Change Mass: 0.00 wt %
[1]; FIG. 3D, RH 1 %, elapse time 32.02 min, desorption
  Change Mass: −0.01 wt %
[1]; FIG. 3D, RH 10 %, elapse time 31.00 min, desorption
  Change Mass: 0.01 wt %
[1]; FIG. 3D, RH 10 %, elapse time 33.25 min, sorption
  Change Mass: 0.03 wt %
[1]; FIG. 3D, RH 20 %, elapse time 31.89 min, sorption
  Change Mass: 0.05 wt %
[1]; FIG. 3D, RH 20 %, elapse time 32.05 min, desorption
  Change Mass: 0.03 wt %
[1]; FIG. 3D, RH 30 %, elapse time 32.20 min, sorption
  Change Mass: 0.07 wt %
[1]; FIG. 3D, RH 30 %, elapse time 62.67 min, desorption
  Change Mass: 0.05 wt %
[1]; FIG. 3D, RH 40 %, elapse time 31.41 min, desorption
  Change Mass: 0.07 wt %
[1]; FIG. 3D, RH 40 %, elapse time 31.53 min, sorption
  Change Mass: 0.09 wt %
[1]; FIG. 3D, RH 50 %, elapse time 31.95 min, sorption
  Change Mass: 0.11 wt %
[1]; FIG. 3D, RH 50 %, elapse time 32.12 min, desorption
  Change Mass: 0.08 wt %
[1]; FIG. 3D, RH 60 %, elapse time 31.87 min, sorption
  Change Mass: 0.13 wt %
[1]; FIG. 3D, RH 60 %, elapse time 32.10 min, desorption
  Change Mass: 0.11 wt %
[1]; FIG. 3D, RH 70 %, elapse time 31.10 min, sorption
  Change Mass: 0.16 wt %
[1]; FIG. 3D, RH 70 %, elapse time 31.50 min, desorption
  Change Mass: 0.14 wt %
[1]; FIG. 3D, RH 75 %, elapse time 31.01 min, desorption
  Change Mass: 0.16 wt %
[1]; FIG. 3D, RH 75 %, elapse time 31.28 min, sorption
  Change Mass: 0.18 wt %
[1]; FIG. 3D, RH 80 %, elapse time 31.43 min, sorption
  Change Mass: 0.19 wt %
[1]; FIG. 3D, RH 80 %, elapse time 32.11 min, desorption
  Change Mass: 0.17 wt %
[1]; FIG. 3D, RH 90 %, elapse time 31.35 min, desorption
  Change Mass: 0.28 wt %
[1]; FIG. 3D, RH 90 %, elapse time 31.97 min, sorption
  Change Mass: 0.25 wt %
[1]; FIG. 3D, RH 95 %, elapse time 32.77 min, sorption
  Change Mass: 0.34 wt %
[1]; FIG. 3D, RH 95 %, elapse time 36.47 min, desorption
  Change Mass: 0.35 wt %
[1]; FIG. 3E, RH 1.33 %, elapse time 60.4 min
  Change Mass: 0.000 wt %
[1]; FIG. 3E, RH 5.06 %, elapse time 923.6 min
  Change Mass: −0.028 wt %
[1]; FIG. 3E, RH 5.09 %, elapse time 590.9 min
  Change Mass: −0.004 wt %
[1]; FIG. 3E, RH 5.15 %, elapse time 243.7 min
  Change Mass: −0.010 wt %
[1]; FIG. 3E, RH 9.91 %, elapse time 260.3 min
  Change Mass: −0.006 wt %
[1]; FIG. 3E, RH 9.94 %, elapse time 598.9 min
  Change Mass: 0.000 wt %
[1]; FIG. 3E, RH 10.06 %, elapse time 582.9 min
  Change Mass: 0.003 wt %
[1]; FIG. 3E, RH 10.08 %, elapse time 915.6 min
  Change Mass: −0.023 wt %
[1]; FIG. 3E, RH 14.90 %, elapse time 606.9 min
  Change Mass: 0.004 wt %
[1]; FIG. 3E, RH 14.99 %, elapse time 270.3 min
  Change Mass: 0.000 wt %
[1]; FIG. 3E, RH 15.08 %, elapse time 574.9 min
  Change Mass: 0.010 wt %
[1]; FIG. 3E, RH 15.12 %, elapse time 907.6 min
  Change Mass: −0.017 wt %
[1]; FIG. 3E, RH 19.74 %, elapse time 278.3 min
  Change Mass: 0.006 wt %
[1]; FIG. 3E, RH 19.88 %, elapse time 614.9 min
  Change Mass: 0.009 wt %
[1]; FIG. 3E, RH 20.10 %, elapse time 566.9 min
  Change Mass: 0.017 wt %
[1]; FIG. 3E, RH 20.12 %, elapse time 899.6 min
  Change Mass: −0.012 wt %
[1]; FIG. 3E, RH 24.83 %, elapse time 623.9 min
  Change Mass: 0.014 wt %
[1]; FIG. 3E, RH 24.90 %, elapse time 891.6 min
  Change Mass: −0.007 wt %
[1]; FIG. 3E, RH 24.92 %, elapse time 287.8 min
  Change Mass: 0.013 wt %
[1]; FIG. 3E, RH 24.95 %, elapse time 558.9 min
  Change Mass: 0.024 wt %
[1]; FIG. 3E, RH 29.82 %, elapse time 296.8 min
  Change Mass: 0.019 wt %
[1]; FIG. 3E, RH 29.84 %, elapse time 632.9 min
  Change Mass: 0.019 wt %
[1]; FIG. 3E, RH 30.09 %, elapse time 551.4 min
  Change Mass: 0.031 wt %
[1]; FIG. 3E, RH 30.10 %, elapse time 884.1 min
  Change Mass: −0.001 wt %
[1]; FIG. 3E, RH 34.80 %, elapse time 305.8 min
  Change Mass: 0.026 wt %
[1]; FIG. 3E, RH 34.87 %, elapse time 641.9 min
  Change Mass: 0.024 wt %
[1]; FIG. 3E, RH 34.94 %, elapse time 875.6 min
  Change Mass: 0.005 wt %
[1]; FIG. 3E, RH 34.95 %, elapse time 543.9 min
  Change Mass: 0.038 wt %
[1]; FIG. 3E, RH 39.84 %, elapse time 314.8 min
  Change Mass: 0.033 wt %
[1]; FIG. 3E, RH 39.90 %, elapse time 865.6 min
  Change Mass: 0.011 wt %
[1]; FIG. 3E, RH 39.92 %, elapse time 533.9 min
  Change Mass: 0.045 wt %
[1]; FIG. 3E, RH 39.94 %, elapse time 650.9 min
  Change Mass: 0.028 wt %
[1]; FIG. 3E, RH 44.92 %, elapse time 659.9 min
  Change Mass: 0.034 wt %
[1]; FIG. 3E, RH 45.02 %, elapse time 325.8 min
  Change Mass: 0.040 wt %
[1]; FIG. 3E, RH 45.04 %, elapse time 523.9 min
  Change Mass: 0.053 wt %
[1]; FIG. 3E, RH 45.07 %, elapse time 856.1 min
  Change Mass: 0.018 wt %
[1]; FIG. 3E, RH 49.78 %, elapse time 334.8 min
  Change Mass: 0.047 wt %
[1]; FIG. 3E, RH 49.88 %, elapse time 668.9 min
  Change Mass: 0.040 wt %
[1]; FIG. 3E, RH 50.07 %, elapse time 845.0 min
  Change Mass: 0.026 wt %
[1]; FIG. 3E, RH 50.10 %, elapse time 512.9 min
  Change Mass: 0.060 wt %
[1]; FIG. 3E, RH 54.90 %, elapse time 345.8 min
  Change Mass: 0.055 wt %
[1]; FIG. 3E, RH 54.96 %, elapse time 679.9 min
  Change Mass: 0.046 wt %
[1]; FIG. 3E, RH 55.12 %, elapse time 501.9 min
  Change Mass: 0.067 wt %
[1]; FIG. 3E, RH 55.14 %, elapse time 834.0 min
  Change Mass: 0.035 wt %
[1]; FIG. 3E, RH 59.94 %, elapse time 356.8 min
  Change Mass: 0.062 wt %
[1]; FIG. 3E, RH 59.95 %, elapse time 688.9 min
  Change Mass: 0.053 wt %
[1]; FIG. 3E, RH 60.08 %, elapse time 490.9 min
  Change Mass: 0.075 wt %
[1]; FIG. 3E, RH 60.19 %, elapse time 823.0 min
  Change Mass: 0.044 wt %
[1]; FIG. 3E, RH 64.92 %, elapse time 699.9 min
  Change Mass: 0.060 wt %
[1]; FIG. 3E, RH 65.00 %, elapse time 365.8 min
  Change Mass: 0.071 wt %
[1]; FIG. 3E, RH 65.13 %, elapse time 814.0 min
  Change Mass: 0.053 wt %
[1]; FIG. 3E, RH 65.14 %, elapse time 479.9 min
  Change Mass: 0.081 wt %
[1]; FIG. 3E, RH 69.90 %, elapse time 710.9 min
  Change Mass: 0.067 wt %
[1]; FIG. 3E, RH 69.95 %, elapse time 376.8 min
  Change Mass: 0.081 wt %
[1]; FIG. 3E, RH 70.05 %, elapse time 468.9 min
  Change Mass: 0.088 wt %
[1]; FIG. 3E, RH 70.16 %, elapse time 803.0 min
  Change Mass: 0.062 wt %
[1]; FIG. 3E, RH 74.60 %, elapse time 385.8 min
  Change Mass: 0.089 wt %
[1]; FIG. 3E, RH 74.67 %, elapse time 719.9 min
  Change Mass: 0.074 wt %
[1]; FIG. 3E, RH 75.19 %, elapse time 457.9 min
  Change Mass: 0.096 wt %
[1]; FIG. 3E, RH 75.43 %, elapse time 792.0 min
  Change Mass: 0.073 wt %
[1]; FIG. 3E, RH 79.52 %, elapse time 728.9 min
  Change Mass: 0.081 wt %
[1]; FIG. 3E, RH 79.61 %, elapse time 394.8 min
  Change Mass: 0.098 wt %
[1]; FIG. 3E, RH 80.43 %, elapse time 783.0 min
  Change Mass: 0.084 wt %
[1]; FIG. 3E, RH 80.44 %, elapse time 448.8 min
  Change Mass: 0.105 wt %
[1]; FIG. 3E, RH 84.52 %, elapse time 403.8 min
  Change Mass: 0.109 wt %
[1]; FIG. 3E, RH 84.80 %, elapse time 737.9 min
  Change Mass: 0.090 wt %
[1]; FIG. 3E, RH 85.39 %, elapse time 774.0 min
  Change Mass: 0.096 wt %
[1]; FIG. 3E, RH 85.43 %, elapse time 439.8 min
  Change Mass: 0.117 wt %
[1]; FIG. 3E, RH 89.49 %, elapse time 412.8 min
  Change Mass: 0.123 wt %
[1]; FIG. 3E, RH 89.52 %, elapse time 746.9 min
  Change Mass: 0.103 wt %
[1]; FIG. 3E, RH 90.18 %, elapse time 430.8 min
  Change Mass: 0.129 wt %
[1]; FIG. 3E, RH 90.24 %, elapse time 765.0 min
  Change Mass: 0.109 wt %
[1]; FIG. 3E, RH 94.51 %, elapse time 421.8 min
  Change Mass: 0.142 wt %
[1]; FIG. 3E, RH 94.81 %, elapse time 756.0 min
  Change Mass: 0.122 wt %
[1]; FIG. 3F, RH 19.77 %, elapse time 317.2 min
  Change Mass: 0.035 wt %
[1]; FIG. 3F, RH 24.90 %, elapse time 326.2 min
  Change Mass: 0.042 wt %
[2]; aqueous buffer, 0.05M Acetate Buffer, solution pH 4.5, read-out: Solubility (mg/mL): 0.05M Acetate Buffer
  solubility: > 100 mg/mL
[2]; pH 1.1, Simulated Gastric Fluid (no enzyme), pH adjusted to 1.1 (Form A), 1.2 (Form A′), read-out: Solubility (mg/mL): Simulated Gastric Fluid (no enzyme)
  solubility: > 100 mg/mL
[2]; pH 6.7, fassgf or other biorelevant, Simulated Intestinal Fluid (no enzyme), pH adjusted to 6.7 (Form A), 6.9 (Form A′), read-out: Solubility (mg/mL): Simulated Intestinal Fluid (no enzyme)
  solubility: > 100 mg/mL
[3]
  thermodynamic stability of crystal form (conversion to other polymorphs or amorphous form): not substantially converting to other polymorphs or amorphous form

Reference: patent publication US10577317B2, “Crystal forms and production methods thereof” (Sunovion Pharmaceuticals Inc., priority 2017, dated 2020)
